Measurements reported in patent publication US20240132449A1, “HETEROCYCLIC COMPOUNDS AND METHODS OF USE THEREOF” (1cBio, Inc., priority 2022, published 2024).

Columns and labels:
PARP1 [1] = target: T1, PARP1 (Homo sapiens, UniProt P09874); test: PARP1 fluorescence polarization binding assay; settings: binding IC50, GST-tagged PARP1 20 nM, PARPi-FL 3 nM
Description: Compounds of the present disclosure were tested in a PARP1 fluorescence polarization binding assay at Pharmaron (Beijing, P.R.China). In this biochemical assay, binding of test compound to recombinant human PARP1 reduces the amount of binding of a fluorescent probe, and consequently reduces the detected level of fluorescence polarization. Test compound stock solutions were prepared in DMSO and then serially diluted into 10 concentrations by 3-fold dilution in a 384-well plate using a TECAN EVO200. 60 nL of each dilution was transferred to the plate using an Echo550 (Labcyte), and then 10 μL 40 nM GST-tagged PARP1 (BPS Bioscience, Cat #80501), diluted in assay buffer (50 mM Tris pH 8.0, 0.001% Triton X-100, 10 mM MgCl2, 150 mM NaCl), was added to the plate. After a centrifugation at 1000 rpm for 1 min, the assay plate was incubated for 30 min at RT. 10 μL 6 nM PARPi-FL (TOCRIS, Cat #6461), diluted using assay buffer, was then added to the plate. The final concentrations of PARP1 and PARPi-FL were 20 nM and 3 nM, respectively, in a total volume of 20 μL. After a centrifugation at 1000 rpm for 1 min, the assay plate was incubated for 4 h at RT. Samples in each well were read using an Envision instrument (Perkin-Elmer; Ex=480 nm Em=FITC FP-P pol 535 nm & FITC FP-S pol 535 nm). Percent inhibition was calculated from mP values using Inhibition (%)=[1−(mPc−mPL)/(mPH−mPL)]×100%, where mPc, mPL, and mPH are the mP values of test compound, Low controls, and High controls, respectively. Binding IC50 values were calculated using XLFit (equation 201: y=A+((B−A)/(1+((x/C)^D))), where A=bottom, B=top, C=IC50, and D=slope) with a floating top and bottom for curves. Binding IC50 values are shown in Table A and are presented in ranges, in which “+++”<100 nM, 100 nM≤“++”<3000 nM, and “+”≥3000 nM.

recombinant human PARP2 = recombinant human PARP2 (Homo sapiens, UniProt Q9UGN5); test: PARP2 fluorescence polarization binding assay; settings: for IC50: binding IC50, GST-tagged PARP2 20 nM, PARPi-FL 3 nM; for inhibition at 10 µM: read-out: PARP2 % inh at 10 μM
Chain of recombinant human PARP2 (Q9UGN5 whole entry): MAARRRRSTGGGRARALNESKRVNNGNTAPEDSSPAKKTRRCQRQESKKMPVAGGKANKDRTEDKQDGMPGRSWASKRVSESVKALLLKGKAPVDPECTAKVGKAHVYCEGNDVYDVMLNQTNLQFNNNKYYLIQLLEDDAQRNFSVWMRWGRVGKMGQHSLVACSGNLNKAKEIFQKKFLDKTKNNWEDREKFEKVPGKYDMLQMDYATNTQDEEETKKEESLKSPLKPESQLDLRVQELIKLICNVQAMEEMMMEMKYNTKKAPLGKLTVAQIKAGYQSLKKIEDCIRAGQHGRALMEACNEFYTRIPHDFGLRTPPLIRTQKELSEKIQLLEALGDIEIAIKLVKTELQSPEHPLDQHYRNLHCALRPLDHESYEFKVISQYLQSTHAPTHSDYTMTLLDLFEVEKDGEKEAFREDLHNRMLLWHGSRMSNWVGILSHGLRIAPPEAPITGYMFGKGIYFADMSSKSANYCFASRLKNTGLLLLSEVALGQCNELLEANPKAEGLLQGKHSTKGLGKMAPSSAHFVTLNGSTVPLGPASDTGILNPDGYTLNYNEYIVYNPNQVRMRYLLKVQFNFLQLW
Description: Compounds of the present disclosure were tested in a PARP2 fluorescence polarization binding assay at Pharmaron (Beijing, P.R. China). In this biochemical assay, binding of test compound to recombinant human PARP2 reduces the amount of binding of a fluorescent probe, and consequently reduces the detected level of fluorescence polarization. Test compound stock solutions were prepared in DMSO and then serially diluted into 10 concentrations by 3-fold dilution in a 384-well plate using a TECAN EVO200. Alternatively, a single concentration was prepared. 60 nL of each dilution was transferred to the plate using an Echo550 (Labcyte), and then 10 μL 40 nM GST-tagged PARP2 (BPS Bioscience, Cat #80502), diluted in assay buffer (50 mM Tris pH 8.0, 0.001% Triton X-100, 10 mM MgCl2, 150 mM NaCl), was added to the plate. After a centrifugation at 1000 rpm for 1 min, the assay plate was incubated for 30 min at RT. 10 μL 6 nM PARPi-FL (TOCRIS, Cat #6461), diluted using assay buffer, was then added to the plate. […] After a centrifugation at 1000 rpm for 1 min, the assay plate was incubated for 4 h at RT. Samples in each well were read using an Envision instrument (Perkin-Elmer; Ex=480 nm Em=FITC FP-P pol 535 nm & FITC FP-S pol 535 nm). […] Binding IC50 values were calculated using XLFit (equation 201: […])^D))), where A=bottom, B=top, C=IC50, and D=slope) with a floating top and bottom for curves.

[2] = tested on: DLD-1 BRCA2(−/−) colorectal adenocarcinoma cells; test: Cell viability assay (Cell Titer-Glo), DLD-1 BRCA2(−/−); format: cell-based; settings: Homo sapiens, DLD-1, 168 h; 7 days incubation, 200 cells/well
Description: (§1) Compounds of the present disclosure were tested for their effects on the viability of cancer cells. DLD-1 wild-type and DLD-1 BRCA2(−/−) colorectal adenocarcinoma cells, an isogenic pair of cell lines differing in the presence and absence, respectively, of both BRCA2 alleles, were used. The cells were harvested during the logarithmic growth period, counted, and seeded at 50 cells/well for DLD-1 wild-type and 200 cells/well for DLD-1 BRCA2(−/−) in a 384-well cell culture plate. After seeding, cells were incubated at 37° C., 5% CO2 overnight. Cells were treated with serially diluted test compounds at 10 concentrations (e.g., from 1.5 nM-30 μM) for generation of dose response curves, or at a single concentration. The plate was further incubated for another 7 days in a humidified incubator at 37° C. and 5% CO2. Cell viability was assessed by luminescence measurement after addition of Cell Titer-Glo reagent (Promega, Madison, Wis.) according to the manufacturer's instructions. Cell viability IC50 values were calculated using XLFit, equation 201: y=A+((B−A)/(1+((x/C)^D))), where A=bottom, B=top, C=IC50, and D=slope. IC50 values are shown in Table B and are presented in ranges, in which “+++”<300 nM, 300 nM≤“++”<3000 nM, and “+”≥3000 nM. Values for percent inhibition at 10 μM are also shown in Table B and are presented in ranges, in which “***”≥67%, 33%≤“**”<67%, and “*”<33%. Effects of the test compounds on the viability of other cell lines such as MDA-MB-436, MDA-MB-231, SUM149PT, HCC1395, and UWB1.289 are determined in an analogous method.

[3] = tested on: DLD-1 wild-type colorectal adenocarcinoma cells; test: Cell viability assay (Cell Titer-Glo), DLD-1 wild-type; format: cell-based; settings: Homo sapiens, DLD-1, 168 h, 7 days incubation; for inhibition at 10 µM: read-out: DLD-1 wild-type % inh at 10 μM
Description: as §1

PARP1 [4] = target: T1, PARP1; test: PARP1 biochemical trapping assay (BPS PARPtrap)
Description: Compounds of the present disclosure were tested in a PARP1 biochemical trapping assay at BPS Bioscience (San Diego, CA). PARP1 is known to bind damaged DNA through its DNA-binding domains. Binding to DNA activates PARP1, and in the presence of NAD+, PARP1 ribosylates itself (auto-ribosylation), leading to PARP1 dissociation from the DNA due to the accumulated negative charge of the ribosyl polymer. In the presence of some inhibitors, however, PARP remains bound to the DNA, a phenomenon termed trapping.
The BPS PARPtrap assay kit for PARP1 (BPS Catalog #80584) was used. A series of dilutions of the compounds were prepared with 10% DMSO in water. The final concentration of DMSO was 1% in all reactions. The enzymatic reactions were conducted in duplicates at room temperature in a 96-well plate. The 45 μl reaction mixtures in PARPtrap buffer 1 containing PARP1 fluorescent labelled oligonucleotide duplex, PARP enzyme and the test compound were incubated at room temperature for 10 min. After pre-incubation, the enzymatic reaction was initiated by adding 5 μl of 10×NAD+ solution. The reaction was incubated for 45-60 min at room temperature.
Fluorescence polarization was measured at an excitation of 470 nm and an emission of 518 nm using a Tecan Infinite M1000 microplate reader. The blank value was subtracted from all other values. Fluorescence polarization was analyzed by Tecan Magellan 6 software and wells containing DNA were used as references. The fluorescence polarization data were then evaluated using GraphPad Prism software. The fluorescence polarization in absence of the compound in each data set was defined as 0% activity (FPo), while the fluorescence polarization in the absence of both NAD+ and the compound was defined as 100% activity (FPt). The percent activity in the presence of the compound was calculated according to the equation % activity=[FP−FPo]/[(FPt−FPo)]×100, where FP=the fluorescence polarization in the presence of the compound.
The values of % activity versus a series of compound concentrations were then plotted using non-linear regression analysis of a sigmoidal dose-response curve generated with the equation Y=B+(T−B)/1+10^((LogEC50−X)×Hill Slope), where Y=percent activity, B=minimum percent activity, T=maximum percent activity, X=logarithm of compound and Hill Slope=slope factor or Hill coefficient. The EC50 value was determined by the concentration causing a half-maximal percent activity. EC50 values are shown in Table C and are presented in ranges, in which “+++”<300 nM, 300 nM≤“++”<3000 nM, and “+”≥3000 nM.

T1 sequence (P09874 whole entry): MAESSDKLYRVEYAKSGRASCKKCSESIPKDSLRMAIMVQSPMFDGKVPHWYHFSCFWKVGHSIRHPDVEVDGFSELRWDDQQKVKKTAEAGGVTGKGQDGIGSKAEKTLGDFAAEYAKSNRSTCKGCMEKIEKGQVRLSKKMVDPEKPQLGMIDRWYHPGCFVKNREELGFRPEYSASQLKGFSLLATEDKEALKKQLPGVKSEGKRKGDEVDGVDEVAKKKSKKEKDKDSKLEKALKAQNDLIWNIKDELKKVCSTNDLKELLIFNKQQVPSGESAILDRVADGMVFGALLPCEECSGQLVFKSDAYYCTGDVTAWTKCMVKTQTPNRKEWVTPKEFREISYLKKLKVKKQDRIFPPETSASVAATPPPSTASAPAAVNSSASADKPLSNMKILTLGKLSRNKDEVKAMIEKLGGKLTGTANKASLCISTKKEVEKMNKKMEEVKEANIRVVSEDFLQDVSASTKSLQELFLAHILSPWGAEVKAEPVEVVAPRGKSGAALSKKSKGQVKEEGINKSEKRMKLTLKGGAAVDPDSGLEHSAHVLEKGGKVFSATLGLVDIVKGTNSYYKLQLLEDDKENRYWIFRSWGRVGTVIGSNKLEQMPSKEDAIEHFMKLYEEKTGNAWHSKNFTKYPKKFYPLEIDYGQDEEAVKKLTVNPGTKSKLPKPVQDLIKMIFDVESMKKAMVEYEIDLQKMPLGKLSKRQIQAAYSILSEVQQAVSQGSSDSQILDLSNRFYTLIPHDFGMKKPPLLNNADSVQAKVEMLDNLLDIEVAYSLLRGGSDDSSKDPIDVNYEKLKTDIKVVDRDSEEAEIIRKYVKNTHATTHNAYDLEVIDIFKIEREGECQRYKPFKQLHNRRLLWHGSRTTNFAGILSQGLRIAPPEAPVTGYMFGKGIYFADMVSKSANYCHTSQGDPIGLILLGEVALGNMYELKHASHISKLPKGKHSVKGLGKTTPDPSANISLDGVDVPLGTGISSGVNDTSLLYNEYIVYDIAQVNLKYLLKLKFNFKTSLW

Structure (SMILES) | IC50 (PARP1 [1]) | IC50 (recombinant human PARP2) | inhibition at 10 µM (recombinant human PARP2) | IC50 [2] | IC50 ([3]; 50 cells/well) | EC50 (PARP1 [4]) | inhibition at 10 µM [3]
CCn1c(=O)[nH]c2cc(CN3CCN(c4ccc(C(=O)NC5COC5)nc4C)CC3)sc2c1=O [Compound 323] | < 0.1 µM | – | 33 to 67% | > 3 µM | – | > 3 µM | < 33%
CCn1c(=O)[nH]c2cc(CN3CCN(c4ccc(C(=O)NC)nc4C)C(=O)C3)sc2c1=O [Compound 334, 5-[4-({3-ethyl-2,4-dioxo-1H-thieno[3,2-d]pyrimidin-6-yl}methyl)-2-oxopiperazin-1-yl]-N,6-dimethylpyridine-2-carboxamide] | 0.1 to 3 µM | – | – | – | – | > 3 µM | –
CCn1c(=O)[nH]c2cc(CN3CCN4c5ccc(C(=O)NC)nc5OC[C@H]4C3)sc2c1=O [Compound 524, (R)-3-((3-ethyl-2,4-dioxo-1,2,3,4-tetrahydrothieno[3,2-d]pyrimidin-6-yl)methyl)-N-methyl-1,2,3,4,4a,5-hexahydropyrazino[1,2-d]pyrido[2,3-b][1,4]oxazine-8-carboxamide] | < 0.1 µM | > 3 µM | 33 to 67% | > 3 µM | – | – | < 33%
CCn1c(=O)[nH]c2cc(CN3CCN(c4ccc(C(=O)NC(CO)CO)nc4C)CC3)sc2c1=O [Compound 527] | < 0.1 µM | – | 33 to 67% | > 3 µM | – | > 3 µM | < 33%

Further lines, with some results ahead:

IC50 (PARP1 [1]) | IC50 (recombinant human PARP2) | inhibition at 10 µM (recombinant human PARP2) | IC50 [2] | IC50 ([3]; 50 cells/well) | EC50 (PARP1 [4]) | Structure (SMILES) | inhibition at 10 µM [3]
< 0.1 µM | > 3 µM | 33 to 67% | 0.3 to 3 µM | > 3 µM | 0.3 to 3 µM | CCn1c(=O)[nH]c2cc(CN3CCN(c4ccc(C(=O)NC)nc4C(F)(F)F)CC3)sc2c1=O [Compound 307] | < 33%
< 0.1 µM | – | 33 to 67% | < 0.3 µM | – | < 0.3 µM | CCn1c(=O)[nH]c2cc(CN3CCN(c4ccc(C(=O)NC)nc4F)CC3)sc2c1=O [Compound 319] | < 33%
